Assay results reported in ChEMBL document CHEMBL1201862, “PubChem BioAssay data set” (2004).
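Each compound was tested at five concentrations against cells in 96-well plates for 48 hours. GI50: concentration for 50% inhibition of growth.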 Activity calls are given as the source filed them. No stated cut-off is given here; in the data, active = GI50 up to about 1.1 µM and inactive = higher.

Tests used:
Experiment in all cases: NCI anticancer screen, dose series, 48 h
[1] = tested on: M19-MEL
[2] = tested on: XF498
[3] = tested on: NCI-H522
[4] = tested on: DLD-1
[5] = tested on: K562
[6] = tested on: HL-60
[7] = tested on: RPMI-8226
[8] = tested on: ACHN
[9] = tested on: SNB-75
[10] = tested on: HCT-15
[11] = tested on: OVCAR-8
[12] = tested on: EKVX
[13] = tested on: HCT-116
[14] = tested on: A549
[15] = tested on: OVCAR-5
[16] = tested on: CAKI-1
[17] = tested on: A498
[18] = tested on: OVCAR-4
[19] = tested on: SNB-78
[20] = tested on: SK-MEL-28
[21] = tested on: HOP-92
[22] = tested on: 786-0
[23] = tested on: SW-620
[24] = tested on: NCI-H460
[25] = tested on: M14
[26] = tested on: NCI-H226
[27] = tested on: SK-OV-3
[28] = tested on: HCC 2998
[29] = tested on: UACC-257
[30] = tested on: UO-31
[31] = tested on: LXFL 529
[32] = tested on: RXF 393
[33] = tested on: KM12
[34] = tested on: UACC-62
[35] = tested on: DMS-273
[36] = tested on: KM-20L2
[37] = tested on: COLO 205
[38] = tested on: SNB-19
[39] = tested on: LOX IMVI
[40] = tested on: CCRF-CEM
[41] = tested on: NCI-H23
[42] = tested on: IGROV-1
[43] = tested on: U-251
[44] = tested on: HT-29
[45] = tested on: SN12C
[46] = tested on: MOLT-4
[47] = tested on: SK-MEL-5
[48] = tested on: SF-539
[49] = tested on: HOP-62
[50] = tested on: SF-268
[51] = tested on: OVCAR-3
[52] = tested on: Malme-3M
[53] = tested on: TK-10
[54] = tested on: DMS-114
[55] = tested on: SF-295
[56] = tested on: HOP-18
[57] = tested on: SK-MEL-2

Compound: COC(=O)C1[C@H](c2cc(OC)c(OC)c(OC)c2)OC(=O)C1(C(=O)OC)C(=O)c1ccc2c(c1)OCO2 (stereo not given in full)
- GI50 [1]: > 100 µM (inactive)
- GI50 [2]: > 100 µM (inactive)
- GI50 [3]: > 100 µM (inactive)
- GI50 [4]: > 100 µM (inactive)
- GI50 [5]: > 100 µM (inactive)
- GI50 [6]: > 100 µM (inactive)
- GI50 [7]: > 100 µM (inactive)
- GI50 [8]: > 100 µM (inactive)
- GI50 [9]: > 100 µM (inactive)
- GI50 [10]: > 100 µM
- GI50 [11]: > 100 µM (inactive)
- GI50 [12]: > 100 µM (inactive)
- GI50 [13]: > 100 µM (inactive)
- GI50 [14]: > 100 µM (inactive)
- GI50 [15]: > 100 µM (inactive)
- GI50 [16]: > 100 µM (inactive)
- GI50 [17]: > 100 µM (inactive)
- GI50 [18]: > 100 µM (inactive)
- GI50 [19]: > 100 µM (inactive)
- GI50 [20]: > 100 µM (inactive)
- GI50 [21]: > 100 µM (inactive)
- GI50 [22]: > 100 µM (inactive)
- GI50 [23]: > 100 µM (inactive)
- GI50 [24]: > 100 µM (inactive)
- GI50 [25]: > 100 µM (inactive)
- GI50 [26]: > 100 µM (inactive)
- GI50 [27]: > 100 µM (inactive)
- GI50 [28]: > 100 µM (inactive)
- GI50 [29]: > 100 µM (inactive)
- GI50 [30]: > 100 µM (inactive)
- GI50 [31]: > 100 µM (inactive)
- GI50 [32]: > 100 µM (inactive)
- GI50 [33]: > 100 µM (inactive)
- GI50 [34]: > 100 µM (inactive)
- GI50 [35]: > 100 µM (inactive)
- GI50 [36]: > 100 µM (inactive)
- GI50 [37]: > 100 µM (inactive)
- GI50 [38]: > 100 µM (inactive)
- GI50 [39]: > 100 µM (inactive)
- GI50 [40]: > 100 µM (inactive)
- GI50 [41]: > 100 µM (inactive)
- GI50 [42]: > 100 µM (inactive)
- GI50 [43]: > 100 µM (inactive)
- GI50 [44]: > 100 µM (inactive)
- GI50 [45]: > 100 µM (inactive)
- GI50 [46]: > 100 µM (inactive)
- GI50 [47]: > 100 µM (inactive)
- GI50 [48]: > 100 µM (inactive)
- GI50 [49]: > 100 µM (inactive)
- GI50 [50]: > 100 µM (inactive)
- GI50 [51]: > 100 µM (inactive)
- GI50 [52]: > 100 µM (inactive)
- GI50 [53]: > 100 µM (inactive)
- GI50 [54]: > 100 µM (inactive)
- GI50 [55]: > 100 µM (inactive)

Compound: O=C1c2ccccc2C2(O)Nc3c(ccc4ccccc34)C12O (stereo not given)
- GI50 [56]: > 100 µM (inactive)
- GI50 [1]: > 100 µM (inactive)
- GI50 [57]: > 100 µM (inactive)
- GI50 [3]: 95.5 µM (inactive)
- GI50 [4]: > 100 µM (inactive)
- GI50 [5]: 61.4 µM (inactive)
- GI50 [6]: 97.1 µM (inactive)
- GI50 [7]: > 100 µM (inactive)
- GI50 [8]: > 100 µM (inactive)
- GI50 [9]: > 100 µM (inactive)
- GI50 [10]: > 100 µM
- GI50 [11]: > 100 µM (inactive)
- GI50 [12]: > 100 µM (inactive)
- GI50 [13]: > 100 µM (inactive)
- GI50 [14]: > 100 µM (inactive)
- GI50 [15]: > 100 µM (inactive)
- GI50 [16]: > 100 µM (inactive)
- GI50 [17]: > 100 µM (inactive)
- GI50 [18]: > 100 µM (inactive)
- GI50 [19]: > 100 µM (inactive)
- GI50 [20]: > 100 µM (inactive)
- GI50 [22]: > 100 µM (inactive)
- GI50 [23]: > 100 µM (inactive)
- GI50 [24]: > 100 µM (inactive)
- GI50 [25]: > 100 µM (inactive)
- GI50 [26]: > 100 µM (inactive)
- GI50 [27]: > 100 µM (inactive)
- GI50 [28]: > 100 µM (inactive)
- GI50 [29]: > 100 µM (inactive)
- GI50 [30]: 95.5 µM (inactive)
- GI50 [31]: 67.8 µM (inactive)
- GI50 [32]: > 100 µM (inactive)
- GI50 [33]: 87.1 µM (inactive)
- GI50 [34]: > 100 µM (inactive)
- GI50 [35]: > 100 µM (inactive)
- GI50 [36]: > 100 µM (inactive)
- GI50 [37]: > 100 µM (inactive)
- GI50 [38]: 85.3 µM (inactive)
- GI50 [39]: > 100 µM (inactive)
- GI50 [40]: 55.3 µM (inactive)
- GI50 [41]: > 100 µM (inactive)
- GI50 [42]: > 100 µM (inactive)
- GI50 [43]: > 100 µM (inactive)
- GI50 [44]: > 100 µM (inactive)
- GI50 [45]: > 100 µM (inactive)
- GI50 [46]: 39 µM (inactive)
- GI50 [47]: 72.8 µM (inactive)
- GI50 [48]: > 100 µM (inactive)
- GI50 [49]: > 100 µM (inactive)
- GI50 [50]: > 100 µM (inactive)
- GI50 [51]: 99.5 µM (inactive)
- GI50 [52]: > 100 µM (inactive)
- GI50 [53]: > 100 µM (inactive)
- GI50 [54]: 60 µM (inactive)
- GI50 [55]: > 100 µM (inactive)
